# According to patent US6440690B1, “Peptides for the activation of the immune system in humans and animals” (priority 1995, dated 2002):
# “Also recorded” adds a separate entry of the source. Ends that are not written are not given here.
# Tests used:
# Leishmania major [1] = test: Murine cutaneous leishmaniasis, drug administration to infected Balb/c mice (TABLE V); type: in vivo
# Text: To investigate the peptide's efficacy in affecting leishmania parasites in vivo, murine cutaneous-leishmaniasis models were used in which mice inoculated with Leishmania major promastigotes were allowed to develop a characteristic cutaneous lesion that attained a mean diameter of […] at day 27 of inoculation. Frommel et al., 1988 , Infection and Immunity 56:843. Treatment consisted of 3 peptide injections at intervals of 5 days and was compared with the effect induced by sodium stibogluconate, the current anti-leishmaniasis drug of choice. After injections, samples drawn periodically from the lesion area were analyzed for assessment of parasites evolution.
# Methods: Female mice, 6 to 8 weeks old, were inoculated with Leishmania major promastigotes (1×10^6) at the proximal portion of the tail as described in Frommel et al., 1988, Infection and Immunity 56:843. […] Simultaneously, evolution of the cutaneous lesion was assessed by direct measurement of the necrotic zone of the lesion.
# Methods. Cytokine concentrations in serum of treated and untreated Balb/c mice were determined by enzyme-immunoassay (Kit Genzyme®) using murine anti-IFN-γ or anti-TNF-α monoclonal antibodies and the corresponding rabbit polyclonal antibodies conjugated to peroxidase, following the manufacturer instructions.
# Leishmania major [2] = test: Murine cutaneous leishmaniasis, SPYY i.v. in Balb/c mice; type: in vivo; details: same doses as SPYY, 6 mice
# Pseudonomas aeruginosa = details: U.S. Pat. No. 5,221,664; cited from earlier work
# [3] = test system: pathogenic microorganisms including bacteria, yeasts, filamentous fungi and protozoa; test: Antimicrobial activity on the spectrum of microorganisms of TABLE I; type: cell-based; details: same experimental conditions
# Experimental: Methods. […] Antimicrobial assays were performed as described in Mor and Nicolas, 1994, J. Biol. Chem. 269:1934-1939. The effect on leishmania was assessed after 1 hour peptide exposure by counting living cells following trypan blue […]. Promastigotes were cultured (1×10^5 cells/ml) at 26° C. […] Trop. Med. Parasitol. 78:423-425, and cultured (1×10^4 cells/ml) at 37° C. Reversibility of inhibition was assessed by incubating 0.5 ml suspension containing 1×10^6 cells/ml in culture media in presence of peptide concentration of 0.2 mg/ml. After various incubation periods, aliquots were centrifuged at 900 g, the pellet washed and reincubated for 24 hours in fresh culture medium.
# To verify the reversibility of inhibition, treated suspensions were thoroughly washed at various periods and reincubated in fresh medium.
# [4] = Dissipation of Diffusion Potential Assay (membrane permeation); details: SUV pretreated with diS-C2-5 and valinomycin
# Experimental: Methods: Small unilamellar vesicles (SUV) were prepared by sonication of PC/PS (1:1 w/w) and cholesterol (10% by weight) as described in Shai et al., 1991, J. Biol. Chem. 266:22346-54. Membrane permeation was assessed using the diffusion potential assay. Sims et al., 1974, Biochemistry 13:3315-3330; Shai et al., 1991, J. Biol. Chem. 266:22346-54. […] Maximal activity of the peptides was plotted versus peptide/lipid molar ratio.
# Leishmania = details: 300 mg/kg for 20-40 injections; cited from earlier work
compound,measurement,setting,value
"O.O.O.O.O.O.O.O.O.O=C([O-])[C@@H]1[O][Sb]2([O-])([O][Sb]34([OH])[O][C@H]([C@H](O)CO)[C@H]([O]3)[C@H](C(=O)[O-])[O]4)[O][C@H]([C@H](O)CO)[C@@H]1[O]2.[Na+].[Na+].[Na+] [NaSG, sodium stibogluconate]",outcome of the cutaneous lesion / disease,"Leishmania major [1]; Balb/c, up to twelve weeks post inoculation and later",reduced; also recorded: complete healing or skin cicatrization were not observed
same,reduction of number of parasites and lesion size,"Leishmania major [1]; mouse, in vivo",partially effective
"EEEKRENEDEEKQDDEQSEM [acidic peptide, helical acidic synthetic peptide, control]",control peptide compared with physiological water control,Leishmania major [2],No significant differences
Magainin II: magainin peptide,MIC,Pseudonomas aeruginosa,256 µM
"NPY: human NPY, 36-residue peptide of the pancreatic peptide family",antimicrobial potency compared with SPYY,[3],inhibitory activity at comparable concentrations
PEEMNKYLTALRHYINLVTRQRY-NH2 [SPYY14-36],antimicrobial potency compared with SPYY,[3],comparable molar potency
same,membrane permeation,[4],permeated phospholipid vesicles
"PYY: human PYY, 36-residue peptide of the pancreatic peptide family",antimicrobial potency compared with SPYY,[3],inhibitory activity at comparable concentrations
meglumine antimoniate [Glucantime],outcome of therapy,Leishmania,does not cure the disease but only results in a transient reduction of the symptoms
